In patent publication US7119075B2, “Use of herbal agents for potentiation of bioefficacy of anti infectives” (priority 2003, dated 2006):
≈ marks a conversion by molar mass, not a printed value.

Legend:
[1] = tested on: Staphylococcus aureus ATCC 29313; assay: Inhibitory effect of bioenhancers alone; type: cell-based
[2] = tested on: Methicillin Resistant Staphylococcus aureus (MRSA); assay: Inhibitory effect of bioenhancers alone; type: cell-based
[3] = tested on: Staphylococcus epidermidis ATCC 12228; assay: Inhibitory effect of bioenhancers alone; type: cell-based
[4] = tested on: Staphylococcus hemolyticus ATCC 29978; assay: Inhibitory effect of bioenhancers alone; type: cell-based
Bacillus cereus RRL 02 = assay: Inhibitory effect of bioenhancers alone; type: cell-based
[5] = tested on: Escherichia coli ATCC 25922; assay: Inhibitory effect of bioenhancers alone; type: cell-based
Salmonella typhi AIIMS 2 = assay: Inhibitory effect of bioenhancers alone; type: cell-based
[6] = tested on: Klebsiella pneumoniae ATCC 75388; assay: Inhibitory effect of bioenhancers alone; type: cell-based
[7] = tested on: Pseudomonas aeruginosa ATCC 27583; assay: Inhibitory effect of bioenhancers alone; type: cell-based
[8] = tested on: Candida tropicalis ATCC 750; assay: Inhibitory effect of bioenhancers alone; type: cell-based
Candida krusei ATCC 6258 = assay: Inhibitory effect of bioenhancers alone; type: cell-based
[9] = tested on: Aspergillus flavus MTCC 1973; assay: Inhibitory effect of bioenhancers alone; type: cell-based
[10] = tested on: Aspergillus fumigatus SI-1; assay: Inhibitory effect of bioenhancers alone; type: cell-based
[11] = tested on: Mycobacterium tuberculosis H37Rv; assay: Inhibitory effect of bioenhancers alone; type: cell-based
[12] = tested on: Mycobacterium tuberculosis 615; assay: Inhibitory effect of bioenhancers alone; type: cell-based
[13] = tested on: Mycobacterium avium ATCC 49601; assay: Inhibitory effect of bioenhancers alone; type: cell-based
[14] = tested on: Mycobacterium intracelluare ATCC 13950; assay: Inhibitory effect of bioenhancers alone; type: cell-based
Gram positive bacteria = assay: organism not typed; type: cell-based; settings: for MIC: read-out: MIC Drug alone
Gram negative bacteria = assay: organism not typed; type: cell-based; settings: for MIC: read-out: MIC Drug alone
M. tuberculosis = assay: MIC of drugs alone and with bioenhancer (Table 7); type: cell-based; settings: Mycobacterium tuberculosis, Drug alone
Yeast = assay: MIC of drugs alone and with bioenhancer (Table 7); type: cell-based; settings: Drug alone
Filamentous fungi = assay: organism not typed; type: cell-based; settings: Drug alone
MRSA 450 = assay: microbe, parasite or virus in culture; settings: Staphylococcus aureus
MRSA 15187 = assay: microbe, parasite or virus in culture; settings: Staphylococcus aureus

## 3′,5-Dihydroxy flavone 7-O-β-D-galacturonide-4′-O-β-D-glucopyranoside [pure molecule of Cuminum cyminum]
[1]; conc. 0.2 μg/ml
  inhibitory effect: ++++ (No inhibition)
[1]; conc. 0.8 μg/ml
  inhibitory effect: ++++ (No inhibition)
[1]; conc. 3.12 μg/ml
  inhibitory effect: ++++ (No inhibition)
[1]; conc. 12.5 μg/ml
  inhibitory effect: ++++ (No inhibition)
[1]; conc. 50 μg/ml
  inhibitory effect: ++++ (No inhibition)
[1]; conc. 100 μg/ml
  inhibitory effect: ++++ (No inhibition)
[2]; conc. 0.2 μg/ml
  inhibitory effect: ++++ (No inhibition)
[2]; conc. 0.8 μg/ml
  inhibitory effect: ++++ (No inhibition)
[2]; conc. 3.12 μg/ml
  inhibitory effect: ++++ (No inhibition)
[2]; conc. 12.5 μg/ml
  inhibitory effect: ++++ (No inhibition)
[2]; conc. 50 μg/ml
  inhibitory effect: ++++ (No inhibition)
[2]; conc. 100 μg/ml
  inhibitory effect: ++++ (No inhibition)
[3]; conc. 0.2 μg/ml
  inhibitory effect: ++++ (No inhibition)
[3]; conc. 0.8 μg/ml
  inhibitory effect: ++++ (No inhibition)
[3]; conc. 3.12 μg/ml
  inhibitory effect: ++++ (No inhibition)
[3]; conc. 12.5 μg/ml
  inhibitory effect: ++++ (No inhibition)
[3]; conc. 50 μg/ml
  inhibitory effect: ++++ (No inhibition)
[3]; conc. 100 μg/ml
  inhibitory effect: ++++ (No inhibition)
[4]; conc. 0.2 μg/ml
  inhibitory effect: ++++ (No inhibition)
[4]; conc. 0.8 μg/ml
  inhibitory effect: ++++ (No inhibition)
[4]; conc. 3.12 μg/ml
  inhibitory effect: ++++ (No inhibition)
[4]; conc. 12.5 μg/ml
  inhibitory effect: ++++ (No inhibition)
[4]; conc. 50 μg/ml
  inhibitory effect: ++++ (No inhibition)
[4]; conc. 100 μg/ml
  inhibitory effect: ++++ (No inhibition)
Bacillus cereus RRL 02; conc. 0.2 μg/ml
  inhibitory effect: ++++ (No inhibition)
Bacillus cereus RRL 02; conc. 0.8 μg/ml
  inhibitory effect: ++++ (No inhibition)
Bacillus cereus RRL 02; conc. 3.12 μg/ml
  inhibitory effect: ++++ (No inhibition)
Bacillus cereus RRL 02; conc. 12.5 μg/ml
  inhibitory effect: ++++ (No inhibition)
Bacillus cereus RRL 02; conc. 50 μg/ml
  inhibitory effect: ++++ (No inhibition)
Bacillus cereus RRL 02; conc. 100 μg/ml
  inhibitory effect: ++++ (No inhibition)
[5]; conc. 0.2 μg/ml
  inhibitory effect: ++++ (No inhibition)
[5]; conc. 0.8 μg/ml
  inhibitory effect: ++++ (No inhibition)
[5]; conc. 3.12 μg/ml
  inhibitory effect: ++++ (No inhibition)
[5]; conc. 12.5 μg/ml
  inhibitory effect: ++++ (No inhibition)
[5]; conc. 50 μg/ml
  inhibitory effect: ++++ (No inhibition)
[5]; conc. 100 μg/ml
  inhibitory effect: ++++ (No inhibition)
Salmonella typhi AIIMS 2; conc. 0.2 μg/ml
  inhibitory effect: ++++ (No inhibition)
Salmonella typhi AIIMS 2; conc. 0.8 μg/ml
  inhibitory effect: ++++ (No inhibition)
Salmonella typhi AIIMS 2; conc. 3.12 μg/ml
  inhibitory effect: ++++ (No inhibition)
Salmonella typhi AIIMS 2; conc. 12.5 μg/ml
  inhibitory effect: ++++ (No inhibition)
Salmonella typhi AIIMS 2; conc. 50 μg/ml
  inhibitory effect: ++++ (No inhibition)
Salmonella typhi AIIMS 2; conc. 100 μg/ml
  inhibitory effect: ++++ (No inhibition)
[6]; conc. 0.2 μg/ml
  inhibitory effect: ++++ (No inhibition)
[6]; conc. 0.8 μg/ml
  inhibitory effect: ++++ (No inhibition)
[6]; conc. 3.12 μg/ml
  inhibitory effect: ++++ (No inhibition)
[6]; conc. 12.5 μg/ml
  inhibitory effect: ++++ (No inhibition)
[6]; conc. 50 μg/ml
  inhibitory effect: ++++ (No inhibition)
[6]; conc. 100 μg/ml
  inhibitory effect: ++++ (No inhibition)
[7]; conc. 0.2 μg/ml
  inhibitory effect: ++++ (No inhibition)
[7]; conc. 0.8 μg/ml
  inhibitory effect: ++++ (No inhibition)
[7]; conc. 3.12 μg/ml
  inhibitory effect: ++++ (No inhibition)
[7]; conc. 12.5 μg/ml
  inhibitory effect: ++++ (No inhibition)
[7]; conc. 50 μg/ml
  inhibitory effect: ++++ (No inhibition)
[7]; conc. 100 μg/ml
  inhibitory effect: ++++ (No inhibition)
[8]; conc. 0.2 μg/ml
  inhibitory effect: ++++ (No inhibition)
[8]; conc. 0.8 μg/ml
  inhibitory effect: ++++ (No inhibition)
[8]; conc. 3.12 μg/ml
  inhibitory effect: ++++ (No inhibition)
[8]; conc. 12.5 μg/ml
  inhibitory effect: ++++ (No inhibition)
[8]; conc. 50 μg/ml
  inhibitory effect: ++++ (No inhibition)
[8]; conc. 100 μg/ml
  inhibitory effect: ++++ (No inhibition)
Candida krusei ATCC 6258; conc. 0.2 μg/ml
  inhibitory effect: ++++ (No inhibition)
Candida krusei ATCC 6258; conc. 0.8 μg/ml
  inhibitory effect: ++++ (No inhibition)
Candida krusei ATCC 6258; conc. 3.12 μg/ml
  inhibitory effect: ++++ (No inhibition)
Candida krusei ATCC 6258; conc. 12.5 μg/ml
  inhibitory effect: ++++ (No inhibition)
Candida krusei ATCC 6258; conc. 50 μg/ml
  inhibitory effect: ++++ (No inhibition)
Candida krusei ATCC 6258; conc. 100 μg/ml
  inhibitory effect: ++++ (No inhibition)
[9]; conc. 0.2 μg/ml
  inhibitory effect: ++++ (No inhibition)
[9]; conc. 0.8 μg/ml
  inhibitory effect: ++++ (No inhibition)
[9]; conc. 3.12 μg/ml
  inhibitory effect: ++++ (No inhibition)
[9]; conc. 12.5 μg/ml
  inhibitory effect: ++++ (No inhibition)
[9]; conc. 50 μg/ml
  inhibitory effect: ++++ (No inhibition)
[9]; conc. 100 μg/ml
  inhibitory effect: ++++ (No inhibition)
[10]; conc. 0.2 μg/ml
  inhibitory effect: ++++ (No inhibition)
[10]; conc. 0.8 μg/ml
  inhibitory effect: ++++ (No inhibition)
[10]; conc. 3.12 μg/ml
  inhibitory effect: ++++ (No inhibition)
[10]; conc. 12.5 μg/ml
  inhibitory effect: ++++ (No inhibition)
[10]; conc. 50 μg/ml
  inhibitory effect: ++++ (No inhibition)
[10]; conc. 100 μg/ml
  inhibitory effect: ++++ (No inhibition)
[11]; conc. 0.2 μg/ml
  inhibitory effect: ++++ (No inhibition)
[11]; conc. 0.8 μg/ml
  inhibitory effect: ++++ (No inhibition)
[11]; conc. 3.12 μg/ml
  inhibitory effect: ++++ (No inhibition)
[11]; conc. 12.5 μg/ml
  inhibitory effect: ++++ (No inhibition)
[11]; conc. 50 μg/ml
  inhibitory effect: ++++ (No inhibition)
[11]; conc. 100 μg/ml
  inhibitory effect: ++++ (No inhibition)
[12]; conc. 0.2 μg/ml
  inhibitory effect: ++++ (No inhibition)
[12]; conc. 0.8 μg/ml
  inhibitory effect: ++++ (No inhibition)
[12]; conc. 3.12 μg/ml
  inhibitory effect: ++++ (No inhibition)
[12]; conc. 12.5 μg/ml
  inhibitory effect: ++++ (No inhibition)
[12]; conc. 50 μg/ml
  inhibitory effect: ++++ (No inhibition)
[12]; conc. 100 μg/ml
  inhibitory effect: ++++ (No inhibition)
[13]; conc. 0.2 μg/ml
  inhibitory effect: ++++ (No inhibition)
[13]; conc. 0.8 μg/ml
  inhibitory effect: ++++ (No inhibition)
[13]; conc. 3.12 μg/ml
  inhibitory effect: ++++ (No inhibition)
[13]; conc. 12.5 μg/ml
  inhibitory effect: ++++ (No inhibition)
[13]; conc. 50 μg/ml
  inhibitory effect: ++++ (No inhibition)
[13]; conc. 100 μg/ml
  inhibitory effect: ++++ (No inhibition)
[14]; conc. 0.2 μg/ml
  inhibitory effect: ++++ (No inhibition)
[14]; conc. 0.8 μg/ml
  inhibitory effect: ++++ (No inhibition)
[14]; conc. 3.12 μg/ml
  inhibitory effect: ++++ (No inhibition)
[14]; conc. 12.5 μg/ml
  inhibitory effect: ++++ (No inhibition)
[14]; conc. 50 μg/ml
  inhibitory effect: ++++ (No inhibition)
[14]; conc. 100 μg/ml
  inhibitory effect: ++++ (No inhibition)

## NCC[C@H](O)C(=O)N[C@@H]1C[C@H](N)[C@@H](O[C@H]2O[C@H](CN)[C@@H](O)[C@H](O)[C@H]2O)[C@H](O)[C@H]1O[C@H]1O[C@H](CO)[C@@H](O)[C@H](N)[C@H]1O [Amikacin]
Gram positive bacteria
  MIC: 2 to 32 µg/mL (≈ 3.42 to 54.6 µM)
Gram negative bacteria
  MIC: 0.12 to 4 µg/mL (≈ 0.205 to 6.83 µM)
M. tuberculosis
  MIC: 0.5 to 1 µg/mL

## C[C@@H]1[C@H](O)[C@@H](C)/C=C/C=C/C=C/C=C/C=C/C=C/C=C/[C@H](O[C@@H]2O[C@H](C)[C@@H](O)[C@H](N)[C@@H]2O)C[C@@H]2O[C@](O)(C[C@@H](O)C[C@@H](O)[C@H](O)CC[C@@H](O)C[C@@H](O)CC(=O)O[C@H]1C)C[C@H](O)[C@H]2C(=O)O [Amphotericin B]
Yeast
  MIC Drug alone: 0.25 to 2.0 µg/mL
Filamentous fungi
  MIC Drug alone: 0.25 to 4 µg/mL

## N[C@@H](C(=O)N[C@@H]1C(=O)N2C(C(=O)O)=C(Cl)CS[C@H]12)c1ccccc1 [Cefaclor]
Gram positive bacteria
  MIC: 0.06 to 32 µg/mL (≈ 0.163 to 87 µM)
Gram negative bacteria
  MIC: 0.25 to 64 µg/mL (≈ 0.68 to 174 µM)

## C=CC1=C(C(=O)O)N2C(=O)[C@@H](NC(=O)/C(=N\O)c3csc(N)n3)[C@H]2SC1 [Cefdinir]
Gram positive bacteria
  MIC: 0.06 to 32 µg/mL (≈ 0.152 to 80.9 µM)
Gram negative bacteria
  MIC: 0.25 to 64 µg/mL (≈ 0.632 to 162 µM)

## COCC1=C(C(=O)O)N2C(=O)[C@@H](NC(=O)/C(=N\OC)c3csc(N)n3)[C@H]2SC1 [Cefpedoxime]
Gram positive bacteria
  MIC Drug alone: 0.12 to 16 µg/mL
Gram negative bacteria
  MIC Drug alone: 0.03 to 64 µg/mL

## CO/N=C(\C(=O)N[C@@H]1C(=O)N2C(C(=O)O)=C(CSc3nc(=O)c(O)nn3C)CS[C@H]12)c1csc(N)n1 [Ceftrioxone]
Gram positive bacteria
  MIC Drug alone: 0.12 to 32 µg/mL
Gram negative bacteria
  MIC Drug alone: 0.03 to 32 µg/mL

## O=C(O)c1cn(C2CC2)c2cc(N3CCNCC3)c(F)cc2c1=O [Ciprofloxacin]
Gram positive bacteria
  MIC: 0.12 to 32 µg/mL (≈ 0.362 to 96.6 µM)
Gram negative bacteria
  MIC: 0.03 to 0.5 µg/mL (≈ 0.0905 to 1.51 µM)
M. tuberculosis
  MIC: 0.5 to 1 µg/mL
MRSA 450
  MIC: 64 µg/mL (≈ 193 µM)
MRSA 15187
  MIC: 64 µg/mL (≈ 193 µM)
